Measured values published in PubChem BioAssay (NCI).
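1) Cells in 96-well plates. 2) Compound, 48 h, 5 concentrations. 3) Linear interpolation between surrounding doses. 4) Unreached endpoint = highest concentration. TGI denotes the concentration required for complete inhibition of growth.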

Columns and labels:
Experiment in all cases: NCI anticancer screen, dose series, 48 h
HCC-2998 colon = test system: HCC-2998 colon
LOX IMVI melanoma = test system: LOX IMVI melanoma
CCRF-CEM leukemia = test system: CCRF-CEM leukemia
UACC-62 melanoma = test system: UACC-62 melanoma
K-562 leukemia = test system: K-562 leukemia
NCI-H460 lung = test system: NCI-H460 lung
EKVX NSCLC = test system: EKVX NSCLC
OVCAR-4 ovarian = test system: OVCAR-4 ovarian
MALME-3M melanoma = test system: MALME-3M melanoma
HOP-62 NSCLC = test system: HOP-62 NSCLC
SK-MEL-2 melanoma = test system: SK-MEL-2 melanoma
SK-OV-3 ovarian = test system: SK-OV-3 ovarian
MDA-MB-435 = test system: MDA-MB-435
SW-620 colon = test system: SW-620 colon
HL-60(TB) leukemia = test system: HL-60(TB) leukemia
TK-10 renal = test system: TK-10 renal
RXF 393 renal = test system: RXF 393 renal
NCI-H226 lung = test system: NCI-H226 lung
SNB-19 CNS = test system: SNB-19 CNS
T-47D breast = test system: T-47D breast
SF-295 CNS = test system: SF-295 CNS
SK-MEL-28 melanoma = test system: SK-MEL-28 melanoma
HS 578T breast = test system: HS 578T breast
DU-145 prostate = test system: DU-145 prostate
SF-268 CNS = test system: SF-268 CNS
MDA-MB-231 breast = test system: MDA-MB-231 breast
ACHN renal = test system: ACHN renal
OVCAR-5 ovarian = test system: OVCAR-5 ovarian
OVCAR-3 ovarian = test system: OVCAR-3 ovarian
COLO 205 colon = test system: COLO 205 colon
SN12C renal = test system: SN12C renal
IGROV1 ovarian = test system: IGROV1 ovarian
RPMI-8226 leukemia = test system: RPMI-8226 leukemia
SNB-75 CNS = test system: SNB-75 CNS
UACC-257 melanoma = test system: UACC-257 melanoma
HCT-15 colon = test system: HCT-15 colon
HOP-92 NSCLC = test system: HOP-92 NSCLC
OVCAR-8 ovarian = test system: OVCAR-8 ovarian
U251 CNS = test system: U251 CNS
MDA-N = test system: MDA-N
UO-31 renal = test system: UO-31 renal
KM12 colon = test system: KM12 colon
HT29 colon = test system: HT29 colon
SF-539 CNS = test system: SF-539 CNS
A549 NSCLC = test system: A549 NSCLC
NCI-H23 lung = test system: NCI-H23 lung
NCI-H522 lung = test system: NCI-H522 lung
M14 melanoma = test system: M14 melanoma
A498 renal = test system: A498 renal
SR leukemia = test system: SR leukemia
MCF7 breast = test system: MCF7 breast
786-0 renal = test system: 786-0 renal
SK-MEL-5 melanoma = test system: SK-MEL-5 melanoma
MOLT-4 leukemia = test system: MOLT-4 leukemia
BT-549 breast = test system: BT-549 breast
NCI/ADR-RES ovarian = test system: NCI/ADR-RES ovarian
HCT-116 colon = test system: HCT-116 colon
PC-3 prostate = test system: PC-3 prostate
CAKI-1 renal = test system: CAKI-1 renal

## COC(=O)C1(Cc2ccccc2)Cc2cc3c(cc2C1)CCC3
HCC-2998 colon
  TGI: > 100 µM
LOX IMVI melanoma
  TGI: 34.7 µM
CCRF-CEM leukemia
  TGI: 31.6 µM
UACC-62 melanoma
  TGI: > 100 µM
K-562 leukemia
  TGI: 41.6 µM
NCI-H460 lung
  TGI: > 100 µM
EKVX NSCLC
  TGI: 60.9 µM
OVCAR-4 ovarian
  TGI: > 100 µM
MALME-3M melanoma
  TGI: 52.6 µM
HOP-62 NSCLC
  TGI: > 100 µM
SK-MEL-2 melanoma
  TGI: 40.1 µM
SK-OV-3 ovarian
  TGI: > 100 µM
MDA-MB-435
  TGI: 35.6 µM
SW-620 colon
  TGI: > 100 µM
HL-60(TB) leukemia
  TGI: 31.3 µM
TK-10 renal
  TGI: > 100 µM
RXF 393 renal
  TGI: 50.7 µM
NCI-H226 lung
  TGI: 63.3 µM
SNB-19 CNS
  TGI: > 100 µM
T-47D breast
  TGI: 75.9 µM
SF-295 CNS
  TGI: > 100 µM
SK-MEL-28 melanoma
  TGI: > 100 µM
HS 578T breast
  TGI: > 100 µM
DU-145 prostate
  TGI: > 100 µM
SF-268 CNS
  TGI: > 100 µM
MDA-MB-231 breast
  TGI: > 100 µM
ACHN renal
  TGI: > 100 µM
OVCAR-5 ovarian
  TGI: 82.6 µM
OVCAR-3 ovarian
  TGI: > 100 µM
COLO 205 colon
  TGI: 33.3 µM
SN12C renal
  TGI: > 100 µM
IGROV1 ovarian
  TGI: > 100 µM
RPMI-8226 leukemia
  TGI: 36.5 µM
SNB-75 CNS
  TGI: 95.4 µM
UACC-257 melanoma
  TGI: 78.8 µM
HCT-15 colon
  TGI: > 100 µM
HOP-92 NSCLC
  TGI: 41.2 µM
OVCAR-8 ovarian
  TGI: 88.9 µM
U251 CNS
  TGI: 64.9 µM
MDA-N
  TGI: 53.5 µM
UO-31 renal
  TGI: > 100 µM
KM12 colon
  TGI: 76.4 µM
HT29 colon
  TGI: 24.6 µM
SF-539 CNS
  TGI: > 100 µM
A549 NSCLC
  TGI: > 100 µM
NCI-H23 lung
  TGI: > 100 µM
NCI-H522 lung
  TGI: 56.4 µM
M14 melanoma
  TGI: > 100 µM
A498 renal
  TGI: 82.4 µM
SR leukemia
  TGI: 31.3 µM
MCF7 breast
  TGI: 42.5 µM
786-0 renal
  TGI: > 100 µM
SK-MEL-5 melanoma
  TGI: 33.7 µM
MOLT-4 leukemia
  TGI: 35 µM
BT-549 breast
  TGI: > 100 µM
NCI/ADR-RES ovarian
  TGI: > 100 µM
HCT-116 colon
  TGI: 76.9 µM
PC-3 prostate
  TGI: > 100 µM

## CC(=O)N/N=C1/NN(C(C)=O)C2(S1)C(=O)Nc1ccc(C)cc12 (stereo unspecified)
HCC-2998 colon
  TGI: > 100 µM
LOX IMVI melanoma
  TGI: > 100 µM
CCRF-CEM leukemia
  TGI: > 100 µM
UACC-62 melanoma
  TGI: > 100 µM
K-562 leukemia
  TGI: > 100 µM
NCI-H460 lung
  TGI: > 100 µM
EKVX NSCLC
  TGI: > 100 µM
OVCAR-4 ovarian
  TGI: > 100 µM
MALME-3M melanoma
  TGI: > 100 µM
HOP-62 NSCLC
  TGI: > 100 µM
CAKI-1 renal
  TGI: > 100 µM
MDA-MB-435
  TGI: > 100 µM
HL-60(TB) leukemia
  TGI: > 100 µM
TK-10 renal
  TGI: > 100 µM
RXF 393 renal
  TGI: > 100 µM
NCI-H226 lung
  TGI: > 100 µM
SNB-19 CNS
  TGI: > 100 µM
T-47D breast
  TGI: 70.9 µM
SF-295 CNS
  TGI: > 100 µM
SK-MEL-28 melanoma
  TGI: > 100 µM
HS 578T breast
  TGI: > 100 µM
DU-145 prostate
  TGI: > 100 µM
SF-268 CNS
  TGI: > 100 µM
MDA-MB-231 breast
  TGI: > 100 µM
ACHN renal
  TGI: > 100 µM
OVCAR-5 ovarian
  TGI: > 100 µM
OVCAR-3 ovarian
  TGI: > 100 µM
COLO 205 colon
  TGI: > 100 µM
SN12C renal
  TGI: > 100 µM
IGROV1 ovarian
  TGI: > 100 µM
RPMI-8226 leukemia
  TGI: > 100 µM
SNB-75 CNS
  TGI: > 100 µM
UACC-257 melanoma
  TGI: > 100 µM
HCT-15 colon
  TGI: > 100 µM
HOP-92 NSCLC
  TGI: > 100 µM
OVCAR-8 ovarian
  TGI: > 100 µM
U251 CNS
  TGI: > 100 µM
MDA-N
  TGI: > 100 µM
UO-31 renal
  TGI: > 100 µM
KM12 colon
  TGI: > 100 µM
HT29 colon
  TGI: > 100 µM
SF-539 CNS
  TGI: > 100 µM
A549 NSCLC
  TGI: > 100 µM
NCI-H23 lung
  TGI: > 100 µM
NCI-H522 lung
  TGI: > 100 µM
M14 melanoma
  TGI: > 100 µM
A498 renal
  TGI: > 100 µM
SR leukemia
  TGI: > 100 µM
MCF7 breast
  TGI: > 100 µM
786-0 renal
  TGI: > 100 µM
SK-MEL-5 melanoma
  TGI: > 100 µM
MOLT-4 leukemia
  TGI: > 100 µM
BT-549 breast
  TGI: > 100 µM
NCI/ADR-RES ovarian
  TGI: > 100 µM
HCT-116 colon
  TGI: > 100 µM
PC-3 prostate
  TGI: > 100 µM

## Cc1cccc2c1CC1(Cc3ccccc3C1=O)C2=O (stereo unspecified)
HCC-2998 colon
  TGI: > 100 µM
LOX IMVI melanoma
  TGI: > 100 µM
CCRF-CEM leukemia
  TGI: > 100 µM
UACC-62 melanoma
  TGI: > 100 µM
K-562 leukemia
  TGI: > 100 µM
NCI-H460 lung
  TGI: > 100 µM
EKVX NSCLC
  TGI: > 100 µM
OVCAR-4 ovarian
  TGI: > 100 µM
MALME-3M melanoma
  TGI: > 100 µM
HOP-62 NSCLC
  TGI: > 100 µM
SK-OV-3 ovarian
  TGI: 99.6 µM
MDA-MB-435
  TGI: > 100 µM
SW-620 colon
  TGI: > 100 µM
HL-60(TB) leukemia
  TGI: > 100 µM
TK-10 renal
  TGI: > 100 µM
RXF 393 renal
  TGI: > 100 µM
NCI-H226 lung
  TGI: > 100 µM
SNB-19 CNS
  TGI: > 100 µM
T-47D breast
  TGI: > 100 µM
SF-295 CNS
  TGI: > 100 µM
SK-MEL-28 melanoma
  TGI: > 100 µM
HS 578T breast
  TGI: > 100 µM
DU-145 prostate
  TGI: > 100 µM
SF-268 CNS
  TGI: > 100 µM
MDA-MB-231 breast
  TGI: > 100 µM
ACHN renal
  TGI: > 100 µM
OVCAR-5 ovarian
  TGI: > 100 µM
OVCAR-3 ovarian
  TGI: > 100 µM
COLO 205 colon
  TGI: > 100 µM
SN12C renal
  TGI: > 100 µM
IGROV1 ovarian
  TGI: > 100 µM
RPMI-8226 leukemia
  TGI: > 100 µM
SNB-75 CNS
  TGI: > 100 µM
UACC-257 melanoma
  TGI: > 100 µM
HCT-15 colon
  TGI: > 100 µM
HOP-92 NSCLC
  TGI: > 100 µM
OVCAR-8 ovarian
  TGI: > 100 µM
U251 CNS
  TGI: > 100 µM
MDA-N
  TGI: > 100 µM
UO-31 renal
  TGI: > 100 µM
KM12 colon
  TGI: > 100 µM
HT29 colon
  TGI: > 100 µM
SF-539 CNS
  TGI: > 100 µM
A549 NSCLC
  TGI: > 100 µM
NCI-H23 lung
  TGI: > 100 µM
NCI-H522 lung
  TGI: > 100 µM
M14 melanoma
  TGI: > 100 µM
A498 renal
  TGI: > 100 µM
SR leukemia
  TGI: > 100 µM
MCF7 breast
  TGI: > 100 µM
786-0 renal
  TGI: > 100 µM
SK-MEL-5 melanoma
  TGI: > 100 µM
MOLT-4 leukemia
  TGI: > 100 µM
BT-549 breast
  TGI: 80.6 µM
NCI/ADR-RES ovarian
  TGI: > 100 µM
HCT-116 colon
  TGI: > 100 µM
PC-3 prostate
  TGI: > 100 µM
